Measured values: paper PMC5540250, “Influence of the Number of Axial Bexarotene Ligands on the Cytotoxicity of Pt(IV) Analogs of Oxaliplatin” (Bioinorganic Chemistry and Applications, 2017)
Read-outs that look alike come from different tables or passages of the source.

What was measured:
[1] = test system: doxorubicin/cisplatin resistant subline MCF7D; assay: MTT cytotoxicity test, 72 h, MCF7D; format: cell-based, human; settings: MCF7D cells (doxorubicin/cisplatin resistant), mean ± standard deviation from 3 independent experiments
Protocol: (§1) The MCF7, MCF7D (gift of N. I. Moiseeva), HaCat, A549, and SW480 cell lines were cultured in Dulbecco modified Eagle's medium (DMEM; PanEco, Russia) with 10% fetal bovine serum (HyClone, USA) and antibiotics (PanEco, Russia) in 5% CO2, 37°C. The compounds were predissolved at 20 mM in dimethyl sulfoxide (DMSO) and added to the cell culture at the required concentration with maximum DMSO content of 0.5 v/v%. Cells in 96-well plates (7 × 10^3 cells/well) were treated with various concentrations of 3, 4, cisplatin, or bexarotene at 37°C for 72 h. Cell viability was determined using the MTT assay as follows: cells were incubated at 37°C for 4 h with 20 μl of 5 mg/ml solution of 3-(4,5-dimethylthiazol-2-yl)-2,5 diphenyltetrazolium bromide (Sigma-Aldrich, St. Louis, USA). The supernatant was discarded and formazan was dissolved in 150 μl of DMSO. The optical density of the solution was measured at 550 nm on a multiwell plate reader (Multiskan FC, Thermo Fisher Scientific, USA). The percentage of viable (i.e., MTT converting) cells was calculated from the absorbance of untreated cells (100%). Each experiment was repeated three times, and each concentration was tested in three replicates.
(§2) The cytotoxicity of complexes 3 and 4, bexarotene, and cisplatin was evaluated in the human MCF7 breast cancer cell line and its doxorubicin/cisplatin resistant subline MCF7D, as well as against colon carcinoma SW480 cells, non-small cell lung carcinoma A549, and immortalized human nonmalignant keratinocyte HaCat cell line using the colorimetric MTT-test after 72 h of incubation (Table 1). The cytotoxic potency of oxaliplatin, the Pt(II) precursor of the new complexes, was taken from literature.

[2] = test system: human MCF7 breast cancer cell line; assay: MTT cytotoxicity test, 72 h, MCF7; format: cell-based; settings: MCF7 cells, mean ± standard deviation from 3 independent experiments
Protocol: as §1, §2

[3] = test system: colon carcinoma SW480 cells; assay: MTT cytotoxicity test, 72 h, SW480; format: cell-based, human; settings: mean ± standard deviation from 3 independent experiments
Protocol: as §1, §2

[4] = test system: non-small cell lung carcinoma A549; assay: MTT cytotoxicity test, 72 h, A549; format: cell-based, human; settings: A549 cells, mean ± standard deviation from 3 independent experiments
Protocol: as §1, §2

[5] = test system: immortalized human nonmalignant keratinocyte HaCat cell line; assay: MTT cytotoxicity test, 72 h, HaCat; format: cell-based; settings: HaCat nonmalignant keratinocytes, mean ± standard deviation from 3 independent experiments
Protocol: as §1, §2

[6] = test system: colon carcinoma SW480 cells; design: method as in PMID 22331606; settings: taken from literature; cited from earlier work
[7] = test system: human MCF7 breast cancer cell line; design: method as in PMID 22213516; settings: MCF7 cells; taken from literature; cited from earlier work
[8] = test system: non-small cell lung carcinoma A549; design: method as in PMID 22331606; settings: A549 cells; taken from literature; cited from earlier work

Molecule | IC50 [1] [µM] | IC50 [2] [µM] | IC50 [3] [µM] | IC50 [4] [µM] | IC50 [5] [µM] | also measured
C=C(c1ccc(C(=O)O)cc1)c1cc2c(cc1C)C(C)(C)CCC2(C)C [Bexarotene, 4-(1-(3,5,5,8,8-pentamethyl-5,6,7,8-tetrahydro-2-naphthyl)vinyl)benzoic acid] |  |  |  |  |  | IC50 ([1]; Homo sapiens): 71 ± 21 µM; IC50 ([2]; Homo sapiens): 67 ± 13 µM; IC50 ([3]; Homo sapiens): 80 ± 10 µM; IC50 ([4]; Homo sapiens): 85 ± 9 µM; IC50 ([5]; Homo sapiens): > 90 µM
N.N.[Cl][Pt][Cl] [Cisplatin] | 75 ± 5.8 | 14 ± 7 | 14 ± 4.4 | 29 ± 10 | 30 ± 10 | 
O=C(O)C(=O)O.[NH-][C@@H]1CCCC[C@H]1[NH-].[Pt+2] [Oxaliplatin] |  |  |  |  |  | IC50 [6]: 0.9 ± 0.3 µM; IC50 [7]: 43.8 µM; IC50 [8]: 11.5 ± 3.9 µM
(OC-6-33)-(trans-1R,2R-Diaminocyclohexane)-bis(4-(1-(3,5,5,8,8-pentamethyl-5,6,7,8-tetrahydro-2-naphthyl)vinyl)benzoato)oxalatoplatinum(IV) [Complex 3] | > 100 | > 100 | > 100 | 83 ± 16 | > 100 | 
(OC-6-44)-acetato(trans-1R,2R-Diamineocyclohexane)-4-(1-(3,5,5,8,8-pentamethyl-5,6,7,8-tetrahydro-2-naphthyl)vinyl)benzoato)oxalatoplatinum(IV) [Complex 4] | 4.8 ± 0.5 | 0.47 ± 0.07 | 11 ± 1.6 | 10 ± 1 | 8 ± 1.3 | IC50 MCF7 [2]: submicromolar range
